Experimental data: patent US11458138B2 (Novartis AG, priority 2017, dated 2022)

Legend:
[1] = biological target: LATS1 (Homo sapiens (Human), UniProt O95835); test: LATS1 biochemical assay (Table 1A, Compound Examples 1-290; method in the earlier part)
[2] = tested on: YAP nuclear translocation in HaCaT cells; test: YAP Translocation Assay (HaCaT Cells); format: cell-based, human; details: Homo sapiens, 24 hours
Experimental: HaCaT cells were suspended at 0.4×10^6 cells/ml in DMEM+10% FBS with penicillin-streptomycin-glutamine. 50 μl of cells were dispensed into 384-well clear bottom assay plates (20,000 cells/well), and incubated overnight at 37° C. 100 nL test compound was transferred into the assay wells containing HaCaT cells using ECHO (Labcyte). After 24 hours incubation at 37° C., 7 μL of 32% PFA was dispensed into each well and incubated for 45 minutes at room temperature. Plates were washed 3 times with PBS, leaving 20 μL of PBS per well, then treated with 0.1% Triton and 1.5% BSA in PBS for 45 minutes at room temperature. Plates were washed for 5 times with PBS, leaving 20 μL of PBS per well. […] Plates were further washed 3 time with PBS, sealed and imaged on the high-content Opera imaging system (PerkinElmer).

Sequence of LATS1 (O95835 whole entry, looked up): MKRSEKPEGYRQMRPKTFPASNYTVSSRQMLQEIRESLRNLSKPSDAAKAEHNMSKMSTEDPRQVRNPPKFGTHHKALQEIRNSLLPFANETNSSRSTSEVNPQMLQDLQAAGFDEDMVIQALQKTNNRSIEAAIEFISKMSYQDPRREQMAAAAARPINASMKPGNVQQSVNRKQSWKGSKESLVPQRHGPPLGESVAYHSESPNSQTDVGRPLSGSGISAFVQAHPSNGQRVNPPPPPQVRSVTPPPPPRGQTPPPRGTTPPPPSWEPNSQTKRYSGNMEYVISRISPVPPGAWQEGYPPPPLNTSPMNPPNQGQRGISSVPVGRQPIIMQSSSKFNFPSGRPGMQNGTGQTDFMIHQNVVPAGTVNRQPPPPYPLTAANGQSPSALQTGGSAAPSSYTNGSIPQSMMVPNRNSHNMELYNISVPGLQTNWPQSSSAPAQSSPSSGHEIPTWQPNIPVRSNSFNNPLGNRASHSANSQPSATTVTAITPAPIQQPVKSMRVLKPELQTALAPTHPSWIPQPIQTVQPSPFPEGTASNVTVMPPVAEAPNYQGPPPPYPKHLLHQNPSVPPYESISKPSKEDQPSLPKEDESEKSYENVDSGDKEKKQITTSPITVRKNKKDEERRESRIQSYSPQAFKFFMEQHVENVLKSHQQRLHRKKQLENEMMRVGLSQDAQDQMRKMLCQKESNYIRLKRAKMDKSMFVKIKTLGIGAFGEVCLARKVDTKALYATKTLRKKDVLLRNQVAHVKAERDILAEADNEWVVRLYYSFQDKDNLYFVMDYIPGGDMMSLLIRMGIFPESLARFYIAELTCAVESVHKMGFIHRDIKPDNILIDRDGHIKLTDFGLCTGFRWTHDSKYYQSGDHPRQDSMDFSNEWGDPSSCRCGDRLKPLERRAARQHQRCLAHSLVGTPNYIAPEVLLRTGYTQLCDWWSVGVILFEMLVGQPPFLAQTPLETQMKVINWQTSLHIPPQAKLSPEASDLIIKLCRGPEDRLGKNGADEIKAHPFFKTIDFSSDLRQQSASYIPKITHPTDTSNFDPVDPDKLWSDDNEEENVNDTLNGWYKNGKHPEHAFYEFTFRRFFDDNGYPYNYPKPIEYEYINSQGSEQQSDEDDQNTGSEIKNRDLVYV
Sequence of LATS1 (Q7L9L4 whole entry partner, looked up): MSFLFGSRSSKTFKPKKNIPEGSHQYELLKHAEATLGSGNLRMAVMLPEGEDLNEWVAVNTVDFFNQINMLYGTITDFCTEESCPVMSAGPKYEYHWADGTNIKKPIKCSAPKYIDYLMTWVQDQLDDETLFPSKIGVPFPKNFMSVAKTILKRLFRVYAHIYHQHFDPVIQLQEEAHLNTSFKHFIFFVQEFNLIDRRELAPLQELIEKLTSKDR

| IC50 [1] [µM] | SMILES | EC50 [2] [µM] |
| --- | --- | --- |
| 0.053 | Clc1cnccc1-c1nc(NC2CCCC2)c2ccncc2n1 [Example 126, 2-(3-chloropyridin-4-yl)-N-cyclopentylpyrido[3,4-d]pyrimidin-4-amine] | > 20 |
| 1.15 | CC(C)(C)Nc1nc(-c2ccncc2C(F)(F)F)nc2cnccc12 [Example 130, N-tert-butyl-2-[3-(trifluoromethyl)pyridin-4-yl]pyrido[3,4-d]pyrimidin-4-amine] | > 20 |
| > 0.833 | CC(C)(C)Nc1nc(-c2cc(Cl)ncc2C(F)(F)F)nc2cnccc12 [Example 131, N-tert-butyl-2-[2-chloro-5-(trifluoromethyl)pyridin-4-yl]pyrido[3,4-d]pyrimidin-4-amine] | > 20 |
| 0.168 | CC1(Nc2nc(-c3ccnc(F)c3F)nc3cnccc23)CC1 [Example 148, 2-(2,3-difluoropyridin-4-yl)-N-(1-methylcyclopropyl)pyrido[3,4-d]pyrimidin-4-amine] | > 20 |
| > 2.5 | CC1(Nc2nc(-c3cnoc3)nc3cnccc23)CC1 [Example 152, N-(1-methylcyclopropyl)-2-(1,2-oxazol-4-yl)pyrido[3,4-d]pyrimidin-4-amine] | > 20 |
| 0.049 | CCCNc1nc(-c2ccncc2Cl)nc2cnccc12 [Example 162, 2-(3-chloropyridin-4-yl)-N-propylpyrido[3,4-d]pyrimidin-4-amine] | > 20 |
| 0.051 | CCCNc1nc(-c2c[nH]nc2C2CC2)nc2cnccc12 [Example 163, 2-(3-cyclopropyl-1H-pyrazol-4-yl)-N-propylpyrido[3,4-d]pyrimidin-4-amine] | > 20 |
| 0.159 | CCCNc1nc(-c2ccncc2C)nc2cnccc12 [Example 164, 2-(3-methylpyridin-4-yl)-N-propylpyrido[3,4-d]pyrimidin-4-amine] | > 20 |
| > 2.5 | CCCNc1nc(-c2cn(C)c3ncccc23)nc2cnccc12 [Example 165, 2-{1-methyl-1H-pyrrolo[2,3-b]pyridin-3-yl}-N-propylpyrido[3,4-d]pyrimidin-4-amine] | > 20 |
| 0.054 | CN(c1nc(-c2cn[nH]c2)nc2cnccc12)C1(C)CC1 [Example 171, N-methyl-N-(1-methylcyclopropyl)-2-(1H-pyrazol-4-yl)pyrido[3,4-d]pyrimidin-4-amine] | 17.2 |
| 0.061 | CCn1nccc1-c1nc(NC2(C)CC2)c2ccncc2n1 [Example 173, 2-(1-ethyl-1H-pyrazol-5-yl)-N-(1-methylcyclopropyl)pyrido[3,4-d]pyrimidin-4-amine] | > 20 |
| > 2.5 | CC1(Nc2nc(-c3ccn[nH]3)nc3cnccc23)CC1 [Example 176, N-(1-methylcyclopropyl)-2-(1H-pyrazol-5-yl)pyrido[3,4-d]pyrimidin-4-amine] | > 20 |
| > 2.5 | CC1(Nc2nc(-c3cnc[nH]3)nc3cnccc23)CC1 [Example 177, 2-(1H-imidazol-5-yl)-N-(1-methylcyclopropyl)pyrido[3,4-d]pyrimidin-4-amine] | > 20 |
| > 2.5 | Cn1cncc1-c1nc(NC2(C)CC2)c2ccncc2n1 [Example 178, 2-(1-methyl-1H-imidazol-5-yl)-N-(1-methylcyclopropyl)pyrido[3,4-d]pyrimidin-4-amine] | > 20 |
| 9 | Cc1cc(-c2nc(NC3(C)CC3)c3ccncc3n2)on1 [Example 181, 2-(3-methyl-1,2-oxazol-5-yl)-N-(1-methylcyclopropyl)pyrido[3,4-d]pyrimidin-4-amine] | > 10 |
| > 10 | CC1(Nc2nc(-c3nn[nH]n3)nc3cnccc23)CC1 [Example 182, N-(1-methylcyclopropyl)-2-(2H-1,2,3,4-tetrazol-5-yl)pyrido[3,4-d]pyrimidin-4-amine] | > 20 |
| 0.009 | Cc1n[nH]cc1-c1nc(NC2(CO)CCC2)c2ccncc2n1 [Example 185, (1-{[2-(3-methyl-1H-pyrazol-4-yl)pyrido[3,4-d]pyrimidin-4-yl]amino}cyclobutyl)methanol] | 11.5 |
| 0.083 | Cn1nccc1-c1nc(NC2(C(F)(F)F)CC2)c2ccncc2n1 [Example 189, 2-(1-methyl-1H-pyrazol-5-yl)-N-[1-(trifluoromethyl)cyclopropyl]pyrido[3,4-d]pyrimidin-4-amine] | > 10 |

Continued, compound first:

| SMILES | IC50 [1] [µM] | EC50 [2] [µM] |
| --- | --- | --- |
| c1ccc(Nc2nc(-c3ccncc3)nc3cnccc23)cc1 [Example 92, N-phenyl-2-(pyridin-4-yl)pyrido[3,4-d]pyrimidin-4-amine] | 0.304 | > 20 |
| Cc1cccc(Nc2nc(-c3ccncc3)nc3cnccc23)c1 [Example 93, N-(3-methylphenyl)-2-(pyridin-4-yl)pyrido[3,4-d]pyrimidin-4-amine] | 0.809 | > 20 |
| O=C(O)CCCCCNc1nc(-c2ccncc2)nc2cnccc12 [Example 94, 6-{[2-(pyridin-4-yl)pyrido[3,4-d]pyrimidin-4-yl]amino}hexanoic acid] | 1.15 | > 20 |
| Fc1ccc(Nc2nc(-c3ccncc3)nc3cnccc23)cc1 [Example 96, N-(4-fluorophenyl)-2-(pyridin-4-yl)pyrido[3,4-d]pyrimidin-4-amine] | > 1.7 | > 20 |
| Cc1c(-c2nc(NC(C)(C)C)c3ccncc3n2)c2cccnc2n1S(=O)(=O)c1ccccc1 [Example 113, 2-[1-(benzenesulfonyl)-2-methyl-1H-pyrrolo[2,3-b]pyridin-3-yl]-N-tert-butylpyrido[3,4-d]pyrimidin-4-amine] | 0.235 | > 20 |
| CC(C)(O)CC(C)(C)Nc1nc(-c2c[nH]nc2C(F)(F)F)nc2cnccc12 [Example 119, 2,4-dimethyl-4-({2-[3-(trifluoromethyl)-1H-pyrazol-4-yl]pyrido[3,4-d]pyrimidin-4-yl}amino)pentan-2-ol] | 0.009 | 5.18 |
| CC(C)(O)COCC(C)(C)Nc1nc(-c2c[nH]nc2C(F)(F)F)nc2cnccc12 [Example 121, 2-methyl-1-[2-methyl-2-({2-[3-(trifluoromethyl)-1H-pyrazol-4-yl]pyrido[3,4-d]pyrimidin-4-yl}amino)propoxy]propan-2-ol] | 0.014 | 8.17 |
| CC(C)(O)CC(C)(C)Nc1nc(-c2ccncc2Cl)nc2cnccc12 [Example 125, 4-{[2-(3-chloropyridin-4-yl)pyrido[3,4-d]pyrimidin-4-yl]amino}-2,4-dimethylpentan-2-ol] | 0.023 | 8 |
| CC(C)(O)COCC(C)(C)Nc1nc(-c2ccncc2Cl)nc2cnccc12 [Example 127, 1-(2-{[2-(3-chloropyridin-4-yl)pyrido[3,4-d]pyrimidin-4-yl]amino}-2-methylpropoxy)-2-methylpropan-2-ol] | 0.055 | > 20 |
| Cc1cnccc1-c1nc(N(C)C(C)C)c2ccncc2n1 [Example 128, N-methyl-2-(3-methylpyridin-4-yl)-N-(propan-2-yl)pyrido[3,4-d]pyrimidin-4-amine] | 0.077 | > 20 |
| CC(C)(CCS(C)(=O)=O)Nc1nc(-c2ccncc2Cl)nc2cnccc12 [Example 129, 2-(3-chloropyridin-4-yl)-N-(4-methanesulfonyl-2-methylbutan-2-yl)pyrido[3,4-d]pyrimidin-4-amine] | 0.187 | > 20 |
| Clc1cnccc1-c1nc(NCCCc2nnn[nH]2)c2ccncc2n1 [Example 132, 2-(3-chloropyridin-4-yl)-N-[3-(1H-1,2,3,4-tetrazol-5-yl)propyl]pyrido[3,4-d]pyrimidin-4-amine] | > 2.5 | > 20 |
| CC(C)(O)CC(C)(C)Nc1nc(-c2ccncc2C#N)nc2cnccc12 [Example 146, 4-{4-[(4-hydroxy-2,4-dimethylpentan-2-yl)amino]pyrido[3,4-d]pyrimidin-2-yl}pyridine-3-carbonitrile] | 0.033 | > 20 |
| CC(C)(O)CC(C)(C)Nc1nc(-c2cn[nH]c2)nc2cnccc12 [Example 166, 2,4-dimethyl-4-{[2-(1H-pyrazol-4-yl)pyrido[3,4-d]pyrimidin-4-yl]amino}pentan-2-ol] | 0.014 | 8.45 |
| C[C@@H](Nc1nc(-c2cn[nH]c2)nc2cnccc12)c1ccccc1 [Example 167, N-[(1R)-1-phenylethyl]-2-(1H-pyrazol-4-yl)pyrido[3,4-d]pyrimidin-4-amine] | 0.143 | > 20 |
| CC(Nc1nc(-c2cn[nH]c2)nc2cnccc12)c1ccncc1 (stereo not shown) [Example 183, 2-(1H-pyrazol-4-yl)-N-[1-(pyridin-4-yl)ethyl]pyrido[3,4-d]pyrimidin-4-amine] | 0.797 | > 20 |
| Cc1n[nH]cc1-c1nc(NC(C)c2ccncc2)c2ccncc2n1 (stereo not shown) [Example 190, 2-(3-methyl-1H-pyrazol-4-yl)-N-[1-(pyridin-4-yl)ethyl]pyrido[3,4-d]pyrimidin-4-amine] | 0.099 | > 20 |
| CC(C)N(C)c1cc(-c2ccncc2)nc2cnccc12 [Example 259, N-methyl-N-(propan-2-yl)-2-(pyridin-4-yl)-1,7-naphthyridin-4-amine] | 0.061 | 17.3 |
| CC(C)(CCO)Nc1cc(-c2ccncc2)nc2cnccc12 [Example 260, 3-methyl-3-{[2-(pyridin-4-yl)-1,7-naphthyridin-4-yl]amino}butan-1-ol] | 0.459 | > 20 |
| CC1(C)CC(O)CCN1c1cc(-c2ccncc2)nc2cnccc12 (stereo not shown) [Example 262, 2,2-dimethyl-1-[2-(pyridin-4-yl)-1,7-naphthyridin-4-yl]piperidin-4-ol] | 0.003 | 0.311 |
